Measured values published in PMC11606874, “Structural and in vitro anticancer properties of the kaempferol–lactoferrin complex” (Food Science & Nutrition, 2024).

Molecular target: T1, lactoferrin (Bos taurus, UniProt P24627)
T1 construct: gene LTF
Assay: intrinsic fluorescence quenching titration (Stern-Volmer and double-logarithmic Ka at […] K), synchronous fluorescence, UV-vis difference spectra
Type: binding
Settings: read-out: K a (L mol^-1) (converted)

T1 sequence (P24627 20-708): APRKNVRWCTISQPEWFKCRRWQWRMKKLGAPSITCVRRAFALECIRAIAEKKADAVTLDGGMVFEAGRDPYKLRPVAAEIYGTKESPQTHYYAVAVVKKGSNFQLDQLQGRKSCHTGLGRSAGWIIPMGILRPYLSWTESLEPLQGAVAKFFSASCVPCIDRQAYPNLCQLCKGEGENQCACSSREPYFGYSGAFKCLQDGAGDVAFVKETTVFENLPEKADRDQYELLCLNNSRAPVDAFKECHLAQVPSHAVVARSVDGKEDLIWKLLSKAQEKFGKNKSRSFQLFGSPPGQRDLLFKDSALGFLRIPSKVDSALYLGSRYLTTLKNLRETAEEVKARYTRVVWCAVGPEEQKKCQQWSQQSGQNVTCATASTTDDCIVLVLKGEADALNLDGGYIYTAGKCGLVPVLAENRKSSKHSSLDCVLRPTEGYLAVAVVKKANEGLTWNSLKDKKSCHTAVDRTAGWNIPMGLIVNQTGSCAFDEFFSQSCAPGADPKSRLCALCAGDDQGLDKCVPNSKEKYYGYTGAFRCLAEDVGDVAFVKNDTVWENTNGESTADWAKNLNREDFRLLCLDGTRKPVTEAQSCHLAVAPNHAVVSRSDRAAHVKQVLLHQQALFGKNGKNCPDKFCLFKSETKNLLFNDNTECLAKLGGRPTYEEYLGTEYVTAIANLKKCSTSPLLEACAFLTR

Kd: 43.3 µM
SMILES: O=c1c(O)c(-c2ccc(O)cc2)oc2cc(O)cc(O)c12 [KAE, kaempferol]
